Results on five compounds are retold here after US12421253B2 (Mirati Therapeutics, Inc., priority 2020, dated 2025).

For one experiment, the target named is T1, KRas^G12D (Homo sapiens, UniProt P01116, G12D).
T1 construct: […]; biotin (biotinylated); purchased Accelegan Inc
As to the kind of experiment: KRas binding assay (TR-FRET displacement of Cy5 labelled tracer). For orientation: In TR-FRET formats the signal depends on donor and acceptor labels being close together.

For the next experiment, the target named is T2, KRas^G12R (Homo sapiens, UniProt P01116, G12R).
T2 construct: […]; biotin (biotinylated); purchased Accelegan Inc
The description is as above.

For a further experiment, the target named is T3, KRas^G12V (Homo sapiens, UniProt P01116, G12V).
T3 construct: […]; biotin (biotinylated); purchased Accelegan Inc
The experiment is described as above.

The test system of a further experiment is H727 cells, pERK. In words: Inhibition of KRas phosphorylation of ERK (Cisbio HTRF Advanced pERK assay). As to conditions: Homo sapiens, NCI-H727, 3 h, read-out: Inhibition (HTRF IC50 nM) of KRas-mediated Phosphorylation of ERK, H727. In kind it is cell-based. The procedure, abridged:
(§1)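 pERK measured by HTRF in lysates from cells treated 3 h with compound, 10 uM top, 3-fold steps, 10 doses, 0.8% DMSO final. Cells (6,000/well, RPMI 10% FBS) had been plated overnight at 37 °C; 0.2 uM trametinib defined minimum signal; antibody detection 2 h at room temperature.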

The next experiment has as its system MKN1 cells, pERK. The experiment is described as above. In kind it is cell-based. As to conditions: Homo sapiens, MKN-1, 3 h, read-out: Inhibition (HTRF IC50 nM) of KRas-mediated Phosphorylation of ERK, MKN1. The procedure, abridged: as §1
A further experiment deals with PSN1 cells, pERK. Described as above. In kind it is cell-based. As to conditions: Homo sapiens, PSN1, 3 h, read-out: Inhibition (HTRF IC50 nM) of KRas-mediated Phosphorylation of ERK, PSN1. The procedure, abridged: as §1
Another experiment concerns ASPC1 cells, pERK. The experiment is described as above. Type of experiment: cell-based. As to conditions: Homo sapiens, ASPC1, 3 h, AsPC-1 cells, read-out: Inhibition (HTRF IC50 nM) of KRas-mediated Phosphorylation of ERK, AsPC-1. Summed up: as §1

SMILES strings stand for the structures.

T2 sequence (P01116 1-169 isoform P01116-2 G12R): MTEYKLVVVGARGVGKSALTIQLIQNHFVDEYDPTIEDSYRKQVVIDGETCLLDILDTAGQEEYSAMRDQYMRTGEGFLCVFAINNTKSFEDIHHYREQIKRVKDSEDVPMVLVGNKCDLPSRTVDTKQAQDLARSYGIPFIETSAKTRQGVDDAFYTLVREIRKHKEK
T3 sequence (P01116 1-169 isoform P01116-2 G12V): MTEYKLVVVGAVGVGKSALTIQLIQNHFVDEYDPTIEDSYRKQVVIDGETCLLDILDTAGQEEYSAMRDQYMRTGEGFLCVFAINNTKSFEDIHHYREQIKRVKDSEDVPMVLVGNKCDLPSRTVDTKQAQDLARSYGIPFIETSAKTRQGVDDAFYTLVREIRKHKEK
T1 sequence (P01116 1-169 isoform P01116-2 G12D): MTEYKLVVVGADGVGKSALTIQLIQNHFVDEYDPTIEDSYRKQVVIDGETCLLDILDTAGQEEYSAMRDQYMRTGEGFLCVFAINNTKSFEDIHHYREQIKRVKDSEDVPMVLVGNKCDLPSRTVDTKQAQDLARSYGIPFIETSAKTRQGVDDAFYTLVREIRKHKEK
Method for KRas^G12D: (§2) The ability of a compound to bind to KRas was measured using a TR-FRET displacement assay. […] After a 60-minute incubation at room temperature, the reaction was measured using a BMG LABTECH CLARIO star Plus via TR-FRET. […] The POC values were fit to a 4-parameter IC50 equation and the IC50 value reported.
Method for KRas^G12R: as §2
Method for KRas^G12V: as §2

`CCc1c(F)ccc2cc(O)cc(N3CCc4c(nc(OC[C@@]56CCCN5C[C@H](F)C6)nc4N4CC5CC(O)C5C4)C3)c12` (stereo partly drawn) [Example 177, 3-(7-(8-ethyl-7-fluoro-3-hydroxynaphthalen-1-yl)-2-(((2R,7aS)-2-fluorohexahydro-1H-pyrrolizin-7a-yl)methoxy)-5,6,7,8-tetrahydropyrido[3,4-d]pyrimidin-4-yl)-3-azabicyclo[3.2.0]heptan-6-ol]: the half-inhibitory concentration (IC50) – broadly, the concentration at which inhibition is half-maximal – is 19 nM on KRas^G12D; 15 nM at KRas^G12R; 9 nM at KRas^G12V; 1380 nM in the experiment with H727 cells, pERK; 479 nM with MKN1 cells, pERK; at least 10000 nM with PSN1 cells, pERK. In the experiment with ASPC1 cells, pERK, the IC50 came to 1310 nM.

On to `OCC1COCCN(c2nc(OC[C@@]34CCCN3C[C@H](F)C4)nc3c2CCN(c2cc(O)cc4ccc(F)c(Br)c24)C3)C1` (stereo partly drawn) [Example 220, 5-bromo-6-fluoro-4-(2-(((2R,7aS)-2-fluorohexahydro-1H-pyrrolizin-7a-yl)methoxy)-4-(6-(hydroxymethyl)-1,4-oxazepan-4-yl)-5,6-dihydropyrido[3,4-d]pyrimidin-7(8H)-yl)naphthalen-2-ol], for which the 50% inhibitory concentration (IC50) is at most 2 nM at KRas^G12D; at most 2 nM on KRas^G12R; at most 2 nM at KRas^G12V; 616 nM in the experiment with H727 cells, pERK; 29 nM in the experiment on MKN1 cells, pERK; 4100 nM in the experiment with PSN1 cells, pERK. Also, the IC50 in the experiment on ASPC1 cells, pERK was 668 nM.

Take `O=C1NCC12CCCN(c1nc(OC[C@@]34CCCN3C[C@H](F)C4)nc3c1CCN(c1cc(O)cc4ccc(F)c(Cl)c14)C3)C2` (stereo partly drawn) [Example 231, 6-(7-(8-chloro-7-fluoro-3-hydroxynaphthalen-1-yl)-2-(((2R,7aS)-2-fluorotetrahydro-1H-pyrrolizin-7a(5H)-yl)methoxy)-5,6,7,8-tetrahydropyrido[3,4-d]pyrimidin-4-yl)-2,6-diazaspiro[3.5]nonan-1-one]: the IC50 at KRas^G12D is 12 nM; on KRas^G12R, 26 nM; on KRas^G12V, 15 nM; in the experiment with H727 cells, pERK, 4380 nM; in the experiment on MKN1 cells, pERK, 929 nM; with PSN1 cells, pERK, at least 10000 nM. The IC50 in the experiment with ASPC1 cells, pERK came out at 2360 nM.

Turning to `Oc1cc(N2CCc3c(nc(OC[C@@]45CCCN4C[C@H](F)C5)nc3N3CCOCC(n4cccn4)C3)C2)c2c(Cl)c(F)ccc2c1` (stereo partly drawn) [Example 230, 4-(4-(6-(1H-pyrazol-1-yl)-1,4-oxazepan-4-yl)-2-(((2R,7aS)-2-fluorohexahydro-1H-pyrrolizin-7a-yl)methoxy)-5,6-dihydropyrido[3,4-d]pyrimidin-7(8H)-yl)-5-chloro-6-fluoronaphthalen-2-ol], the IC50 at KRas^G12D was 5 nM; on KRas^G12R it was 5 nM; at KRas^G12V, 3 nM; in the experiment with H727 cells, pERK, 1750 nM; with MKN1 cells, pERK, 112 nM; with PSN1 cells, pERK, at least 10000 nM. In addition, in the experiment with ASPC1 cells, pERK, the IC50 was determined as 1090 nM.

In the case of `CCc1c(F)ccc2cc(O)cc(N3CCc4c(nc(OC[C@@]56CCCN5C[C@H](F)C6)nc4N4CC5CC(O)CC(C5)C4)C3)c12` (stereo partly drawn) [Example 179, 3-(7-(8-ethyl-7-fluoro-3-hydroxynaphthalen-1-yl)-2-(((2R,7aS)-2-fluorohexahydro-1H-pyrrolizin-7a-yl)methoxy)-5,6,7,8-tetrahydropyrido[3,4-d]pyrimidin-4-yl)-3-azabicyclo[3.3.1]nonan-7-ol], the IC50 on KRas^G12D was 207 nM; at KRas^G12R it was 80 nM; at KRas^G12V, 101 nM; with H727 cells, pERK, 4790 nM; in the experiment on MKN1 cells, pERK, 1210 nM; in the experiment with PSN1 cells, pERK, at least 10000 nM. Also, in the experiment on ASPC1 cells, pERK, the IC50 was 5170 nM.
